Data on two substances can be found in paper PMC10552107 (ACS Omega, 2023).

One experiment relates to CD47/SIRPα axis. The experiment in a line: In vitro phagocytosis assay, BMDMs cocultured with CT26.CL25. It counts as cell-based, BALB/c mice. The settings on record: 30 min treatment of CT26.CL25, 200 nM; comparison of the two treated groups.
The target of a further experiment is PD-L1 receptor (Mus musculus, UniProt Q9EP73). The experiment in a line: Membrane receptor expression analysis using flow cytometry. The settings on record: 4T1, 500 nM, APC-conjugated PD-L1 antibody. In kind it is cell-based, murine. Background: In flow cytometry, cells or beads pass a laser one at a time.
Sequence of PD-L1 receptor (Q9EP73 19-290): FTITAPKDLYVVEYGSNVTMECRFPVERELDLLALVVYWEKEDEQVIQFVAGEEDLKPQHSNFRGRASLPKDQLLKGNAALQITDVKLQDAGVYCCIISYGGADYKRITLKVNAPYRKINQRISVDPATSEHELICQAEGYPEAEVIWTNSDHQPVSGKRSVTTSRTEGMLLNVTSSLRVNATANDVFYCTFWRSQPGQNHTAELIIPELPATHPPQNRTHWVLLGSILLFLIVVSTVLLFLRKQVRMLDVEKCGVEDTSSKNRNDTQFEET

For the substance “EEELQIIQPDKSVLVAAGETATLRCTITSLFPVGPIQWFRGAGPGRVLIYNQRQGPFPRVTTVSDTTKRNNMDFSIRIGNITPADAGTYYCIKFRKGSPDDVEFKSGAGTELSVRAKP [CD47-ligand]”, the “phagocytic index (%)” value in the experiment with CD47/SIRPα axis was “similar”.

Turning to D-peptide NYSKPTDRQYHF [PD-L1-ligand], the “PD-L1 expression (percentage of positive cells)” value at PD-L1 receptor (1 h) was determined as 3.29%; on PD-L1 receptor (48 h), 7.82%.
